Data: EP0412158A1, “ONCOSTATIC DRUG” (priority 1987, dated 1988)
“And” between values parts separate entries of the source, which are not always exact repeats. Identical values can stand only once. Like-named read-outs stand apart in the source and are kept apart here.

What was measured:
[1] = test system: methyl cholanthrene A tumor; test: Methyl cholanthrene A tumor, evaluation by size of tumor (Examples 31 to 33); assay type: in vivo, female BALB/C mice
Experimental: A heteropoly acid salt, Na5[IM06O24]•34H2O (Compound M), and other compounds (Compounds N and O ) were severally dissolved in distilled water to obtain aqueous solutions containing the salts in a fixed concentration of 10 mg/ml. To female BALB/C mice (five weeks old) to which methyl cholanthrene A tumor had been transplanted, the aqueous solutions were administered to test the compounds for antineoplastic activity. To be specific, the methyl cholanthrene A was transplanted to the mice at a ratio of 1.0 x 10^5 cells per mouse and the aqueous solutions were administered ([…]) for 9 consecutive days by intraperitoneal injection. On elapse of 14 and 21 days after the stop of the administration, the sizes of tumors in the mice were measured. For comparison, mice to which no aqueous solution was administered and mice to which aminonitrosourea was administered were similarly tested.

human lung cancer (OAT) = assay type: in vivo, female ICR/cd-1 mice
Experimental: A patch of human lung cancer [cancer cells recommended by National Cancer Institute (NCI) of the U.S.A.] (OAT) measuring approximately 1 x 1 mm in area was transplanted beneath the hepatic capsule of each of female ICR/cd-1 mice (18 to 20 g) five to six weeks old (SRC method).
Then, an aqueous solution of 1% by weight of the aforementioned compound M was administered by intraperitoneal injection (ip) at a dose of 100 mg/kg and a dose of 200 mg/kg to the mice once per day for 5 consecutive days. The body weights of the mice and the sizes of tumor in the mice were measured on the 7th day, i.e. after one days interval following the stop of the administration to evaluate the effect of compound.

## Nas [IMo6O24] • 34H2O [Compound M]
[1]; 100 mg/kg, ip × 9 (D1~D9)
  Average weight of tumor after elapse of 14 days ± SE: 191.1±38.8(7) mg
[1]; 100 mg/kg.ip for 9 consecutive days, judged by increase of body weight, result in words
  toxicity: very slight toxicity
Human lung cancer (OAT); 100 mg/kg, IP 1~6 (except for 4)
  T/C: 77.4%
Human lung cancer (OAT); 100 mg/kg, IP 1~6 (except for 4), group mean
  Tumorous activity T7/T0: 2.00±0.20
Human lung cancer (OAT); 100 mg/kg, IP 1~6 (except for 4), individual mice
  Tumorous activity T7/T0: 2.25 and 1.60 and 2.15
Human lung cancer (OAT); 100 mg/kg, IP 1~6 (except for 4), size of tumor on 7th day, individual mice
  Tumorous activity T7: 22.5 omu and 16.0 omu and 21,5 omu
Human lung cancer (OAT); result in words
  antineoplastic activity: strong antineoplastic activity
